Laboratory results: PMC9126943, “ADAMTS4-specific MR probe to assess aortic aneurysms in vivo using synthetic peptide libraries” (Nature Communications, 2022)
Where “and” joins values, the source holds several entries; their conditions need not be identical. Equal values may be shown once. Entries after “also recorded” stand apart in the source; their conditions may differ. Where a SMILES comes first, the peptide text is derived from it. Bridges are numbered along the chain shown (N, C = ends). The star is where a group is joined. DOTA = O=C(O)CN1CCN(CC(=O)O)CCN(CC(=O)*)CCN(CC(=O)O)CC1

Experiments:
[1] = Metabolic stability in human plasma by HPLC; format: in vitro ADME; details: lyophilized human plasma 1 g in 10 ml water, 0.2 µm filtered; 8 mg probe in 2 ml plasma; 37 °C, 700 rpm; 5 min to 24 h; HPLC C18, absorbance 220 nm, blank subtracted
Method: 1 g of lyophilized human plasma was dissolved in 10 ml ultrapure water and mixed for 12 h at 4 °C. Afterward, the plasma was filtered with a pore size of 0.2 µm, and the filtrate was mixed for 1 h at 37 °C. 2 ml of plasma was mixed with 8 mg of the ADAMTS4-specific probe, while 2 ml plasma was kept blank. Both samples were shaken at 37 °C at 700 rpm. After different time points (5 min, 30 min, 45 min, 1 h, 2 h, […], 18 h, and 24 h) respectively, 200 µl of both samples were removed and 200 µl guanidium HCl (6 M, pH 3) was added to each sample and mixed for 30 min at RT. Afterward, 1 ml EtOH was added, and the samples were shaken at 4 °C for 48 h. The samples were centrifuged at 4 °C, 22640 x g for 15 min, and 1 ml of the supernatant was taken. The solvent was removed with the Speedvac (Martin Christ RVC 2-18 CDplus) at 37 °C. 250 µl ultrapure water + 0.2% TFA were added into each sample and shaken overnight. The samples were centrifuged at 4 °C, 22640 x g for 15 min, and 200 µl were transferred into MS vials. The samples were measured with an AdvanceBio Peptide Map column (C18; Core-shell; length 15 cm; ID 2.1 mm) on a 1260 Infinity Bioinert Quaternary LC System (Agilent Technologies). The following conditions were used: 2 µl injections volume, flowrate 0.4 ml/min, 0–30 min 99% A to 85% A (A: ultrapure water with 0.2% TFA; B ACN with 0.16% TFA). […]

[2] = molecular target: T1, ADAMTS4 in the aortic wall of ApoE−/− mice (Mus musculus, UniProt Q8BNJ2); assay: In vivo MRI, early detection study (days 2, 4, 10); details: for ADAMTS4-MRI signal (CNR): day 4 of AngII
T1 construct: from tissue
T1 sequence (Q8BNJ2 209-833): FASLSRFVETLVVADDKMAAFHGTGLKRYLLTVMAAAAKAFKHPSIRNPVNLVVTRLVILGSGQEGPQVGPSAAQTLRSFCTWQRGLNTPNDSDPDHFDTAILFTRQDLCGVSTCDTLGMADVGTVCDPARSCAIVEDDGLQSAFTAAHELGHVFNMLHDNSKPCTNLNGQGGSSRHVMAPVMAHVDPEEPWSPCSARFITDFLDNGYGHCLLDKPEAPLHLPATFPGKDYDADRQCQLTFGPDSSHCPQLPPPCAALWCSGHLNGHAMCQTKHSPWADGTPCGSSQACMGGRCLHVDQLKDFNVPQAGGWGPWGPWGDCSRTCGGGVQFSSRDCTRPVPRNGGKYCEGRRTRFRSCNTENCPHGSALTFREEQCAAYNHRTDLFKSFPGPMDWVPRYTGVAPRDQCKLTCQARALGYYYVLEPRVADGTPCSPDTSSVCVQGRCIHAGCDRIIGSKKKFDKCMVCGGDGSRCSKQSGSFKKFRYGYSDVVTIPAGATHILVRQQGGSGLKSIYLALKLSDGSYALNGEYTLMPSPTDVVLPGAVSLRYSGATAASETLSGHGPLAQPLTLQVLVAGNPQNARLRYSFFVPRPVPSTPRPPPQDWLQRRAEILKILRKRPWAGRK
Method: For the early detection study, we used an AAA group (n = 20). MR imaging was performed after 2, 4, and 10 days of AngII-infusion. At each time point, mice were scanned prior to and following the administration of the ADAMTS4-specific probe (0.13 mmol/kg body weight). On day 28 post implantation, only native imaging was performed and subsequently, the aortic samples were excised.
MR imaging was performed using a clinical 3 T Siemens system (Biograph, Siemens Healthcare Solutions, Erlangen, Germany). The system was equipped with a 4-channel receive-coil array for mouse body applications (Mouse Heart Array, P-H04LE-030, Version 1, Rapid Biomedical, Germany). Following anesthesia injection, the animals were positioned in a prone position, and body temperature (37 °C) was monitored using an MR-compatible heating system (Model 1025, SA Instruments Inc, Stony Brook, NY) to avoid rapid cooling. For intravenous administration of the molecular probe, venous access was established using a small diameter tube with an attached 30 G cannula. The imaging protocol included the following sequences:
After a three-dimensional (3D) gradient-echo scout scan, a non-contrast-enhanced two-dimensional time-of-flight angiography (2D TOF) was acquired in transverse orientation for visualization of the abdominal aorta with the following parameters: field of view (FOV) of […], a matrix of 960 × 960, resolution of 0.2 × 0.2 × 0.5 mm, 40 slices, repetition time (TR)/echo time (TE) of 35 ms/4.44 ms, flip angle of 90°, and bandwidth of 124 Hz/Px. A maximum intensity projection (MIP) was then automatically generated to obtain an arterial angiogram of the abdominal aorta for planning the subsequent MR angiography and delayed-enhancement scans. A 2D inversion time (TI) scout sequence, planned perpendicular to the abdominal aorta, was used to determine the optimal TI for blood-signal nulling. Acquisition parameters were as follows: for the 2D TI sequence—FOV 340 × 340 mm, matrix 576 × 576, spatial resolution 0.6 × 0.6 × 3 mm, TR/TE 44.91 ms/2.09 ms, flip angle 35°, bandwidth 579 Hz/Px, TR between subsequent IR pulses 1000 ms; and for the high-resolution 3D IR FLASH sequence—FOV 57 × 57 mm, matrix 384 × 384, spatial resolution = 0.1 × 0.1 × 0.3 mm, 56 slices, TR/TE = 1019.72/7.02 ms, flip angle 30°, bandwidth 130 Hz/px, TR between subsequent IR pulses = 1000 ms.
Analysis of resulting MR images was performed using OsiriX (version 7.1, OsiriX Foundation, Bernex, Switzerland). All morphometric measurements were conducted on high-resolution MRI images. In order to assess the signal intensities, regions of interest (ROIs) were measured as areas of signal enhancement, which were co-localized with areas of aneurysmal-aortic tissue. For these areas, the CNR was calculated using the following formula: CNR = (Combined vessel-wall and aneurysmal-aortic-tissue-signal − blood-signal)/standard-deviation-signal (noise). The signal of noise was defined as the standard deviation in pixel intensity from an ROI placed in the background air anterior to the aorta.

[3] = Gadolinium in the aortic wall by ICP-MS; format: in vivo, mouse; details: ICP-MS of digested aorta after probe administration; individual mice, n = 7
Method: The samples were dissolved with 12 ml ultrapure water.

What does the source list for N=C(N)NCCC[C@@H]1NC(=O)[C@H](CCCNC(=N)N)NC(=O)[C@H](CO)NC(=O)[C@@H](N)CSSC[C@@H](C(=O)N[C@@H](CO)C(=O)NCC(=O)NCC(=O)N[C@@H](CO)C(=O)NCC(=O)NCC(=O)N[C@@H](CCCCNC(=O)CN2CCN(CC(=O)O)CCN(CC(=O)O)CCN(CC(=O)O)CC2)C(=O)NCC(N)=O)NC(=O)CNC1=O (Gd complex, metal not drawn) [ADAMTS4-specific probe] (H-CSRRGCSGGSGGK(DOTA)G-NH2; disulfide 1-6)?
degradation in human plasma within 24 h [1]: No relevant degradation; also recorded: No relevant biodegradation; ROC curve area for prediction of a fatal AAA rupture ([2]; ADAMTS4-MRI level after 4 days): 0.96; sensitivity for prediction of a fatal AAA rupture (ROC) ([2]; ADAMTS4-MRI level after 4 days): 0.88; specificity for prediction of a fatal AAA rupture (ROC) ([2]; ADAMTS4-MRI level after 4 days): 0.9; ADAMTS-4 levels (CNR) ([2]; day 4, subgroup n = 4 without significant outward remodeling on MRI): 11.7±0.8; ADAMTS4-MRI signal (CNR) ([2]; animals that developed an AAA and survived for 4 weeks): 10.3 ± 1.1; ADAMTS4-MRI signal (CNR) ([2]; animals that did not develop an AAA): 6.9 ± 1.2; ADAMTS4-MRI signal (CNR) ([2]; animals with fatal AAA rupture): 15.2 ± 0.7; Gd amount in the aortic wall [3]: 38.015 ng/kg and 35.695 ng/kg and 62.7086 ng/kg and 32.3631 ng/kg and 8.118 ng/kg and 16.4033 ng/kg and 11.8689 ng/kg
